# Patent US9125881B2, “Monoglyceride of acetoacetate and derivatives for the treatment of neurological disorders” (Accera, Inc., priority 2008, dated 2015)
# Entries after “also recorded” stand apart in the source; their conditions may differ.
# Tests used:
# [1] = tested on: MPTP lesioned mice; assay: Neuroprotective effects in MPTP lesioned mice (mouse model of Parkinson's disease); type: in vivo; conditions: for TH+ neuron density in substantia nigra (mean): 8 day ip MPTP, histology on treatment day 11
# Procedure: To test the possible therapeutic potential of AC-0523 a small pilot experiment was performed examining the potential neuroprotective effects of AC-0523 in a mouse model of Parkinson's disease (PD). 1-methyl-4-phenyl-1,2,3,6-tetrahydropyridine (MPTP), blocks complex I (NADH-ubiquinone oxidoreductase) of the mitochondrial electron transport chain, and causes typical symptoms of (PD) and the loss of dopaminergic neurons.
# Systemic injection of MPTP, upon conversion to MPP+, produces a loss of nigrostriatal dopamine (DA) nerve terminals and eventual death of […] dopaminergic neurons. This neuropathology mimics conditions in the dopamine denervated striatum of human PD patients, and produces […] and postural instability. Assays for tyrosine hydroxylase (TH), the enzyme responsible for catalyzing the production of dopamine, and quantification of TH-containing cells in the SNc are performed to measure the extent of […] dopaminergic neurodegeneration.
# A parallel group design was used. After acclimation in the facility, subjects were tested on the Rotarod and activity tasks. On the second day of test treatment, all subjects began an 8 day ip administration of MPTP or saline. Fifteen minutes before MPTP or saline treatment and 2.75 hours after, subjects received either the test compound or saline. On the first and ninth treatment day blood draws were taken for subsequent monitoring of β-hydroxybutyrate. On treatment day 11 all subjects were euthanized and histology was preformed on a small number of test animals.
# [2] = Mouse pharmacokinetic (PK) study: blood ketone bodies after po and ip dosing; type: in vivo; conditions: ICR male mice, single po dose (2.5, 5, 10 ml/kg) or single ip dose (1 g/kg); plasma; as early as 15 minutes
# Procedure: The inventor examined the blood levels of ketone bodies after oral (po) and intraperitoneal (ip) dosing of monoacetoacetin at different time points in the mouse.
# ICR male mice 6 to 7 weeks old were used. Each mouse weighed between 20-30 grams. Animals were housed 3 per cage and were acclimated for at least 3 days prior to dosing. Mice were given either a single po dose (ranging from 2.5, 5 and 10 ml/kg) of compound, or a single ip dose (1 g/kg). Animals were anesthetized for blood collection at the times 15, 30, 60 and 180 minutes. Whole blood (˜0.4 mls) was collected via cardiac puncture and collected into sodium heparin anticoagulant (Na Heparin, 1:9 ratio). Blood was centrifuged for 8 minutes at 13,000 rpm to isolate plasma. The plasma was transferred into pre-labeled, color-coded eppendorf tubes and frozen at −70° C. […] Plasma levels of beta-hydroxybutyrate (BHB) were determined using a beta-hydroxybutyrate detection kit following manufacturer's directions (StanBio Inc.).
# [3] = MPTP-treated mice, listed as AC-0523
structure (smiles),measurement,setting,value
"CC(=O)CC(=O)OCC(O)CO (stereo not drawn) [Monoacetoacetin, 2,3-dihydroxypropyl 3-oxobutanoate]",TH-positive cell counts in the SNc versus MPTP-treated mice who received only saline or AC-1202,[1],higher
same,density of TH in the caudate-putamen,[1]; MPTP-treated mice,highest
same,TH+ neuron density in substantia nigra (mean),"[1]; MPTP-treated mice, listed as AC0523",111.000
same,TH+ neuron density in substantia nigra (mean),[1]; [3],111±20
same,protection of tyrosine hydroxylase (TH) expressing cells from MPTP toxicity / neuroprotection,[1]; [3],protected tyrosine hydroxylase (TH) expressing cells from MPTP toxicity; also recorded: neuroprotective
same,circulating BHB levels,[2],significant increases
